Assay results from article PMC10408569, “Recruitment of hexahydroquinoline as anticancer scaffold targeting inhibition of wild and mutants EGFR (EGFR^WT, EGFR^T790M, and EGFR^L858R)” (Journal of Enzyme Inhibition and Medicinal Chemistry, 2023).

Key:
KM 12 = experiment: NCI-60 anticancer screening (SRB); type: cell-based; settings: Homo sapiens, KM12; KM 12, colon cancer; one dose 10 μM; read-out: Growth Inhibition Percentage (GI %)
MDA-MB-231 = experiment: NCI-60 anticancer screening (SRB); type: cell-based; settings: Homo sapiens; MDA-MB-231, breast cancer; one dose 10 μM; read-out: Growth Inhibition Percentage (GI %)
EGFR^L858R = EGFR^L858R (Homo sapiens, UniProt P00533, L858R); experiment: biochemical
RXF 393 = experiment: NCI-60 anticancer screening (SRB); type: cell-based; settings: Homo sapiens; RXF 393, renal cancer; one dose 10 μM; read-out: Growth Inhibition Percentage (GI %)
SW-620 = experiment: NCI-60 anticancer screening (SRB); type: cell-based; settings: Homo sapiens; SW-620, colon cancer; one dose 10 μM; read-out: Growth Inhibition Percentage (GI %)
ACHN = experiment: NCI-60 anticancer screening (SRB); type: cell-based; settings: Homo sapiens, renal cancer, one dose 10 μM, read-out: Growth Inhibition Percentage (GI %)
SR = experiment: NCI-60 anticancer screening (SRB); type: cell-based; settings: Homo sapiens, leukemia, one dose 10 μM, read-out: Growth Inhibition Percentage (GI %)
RPMI-8226 = experiment: NCI-60 anticancer screening (SRB); type: cell-based; settings: Homo sapiens; RPMI-8226, leukemia; one dose 10 μM; read-out: Growth Inhibition Percentage (GI %)
HCC-2998 = experiment: NCI-60 anticancer screening (SRB); type: cell-based; settings: Homo sapiens; HCC-2998, colon cancer; one dose 10 μM; read-out: Growth Inhibition Percentage (GI %)
UACC-257 = experiment: NCI-60 anticancer screening (SRB); type: cell-based; settings: Homo sapiens; UACC-257, melanoma; one dose 10 μM; read-out: Growth Inhibition Percentage (GI %)
HOP-62 = experiment: NCI-60 anticancer screening (SRB); type: cell-based; settings: Homo sapiens; HOP-62, NSC lung cancer; one dose 10 μM; read-out: Growth Inhibition Percentage (GI %)
NCI 60 cancer cell lines = experiment: NCI-60 anticancer screening (SRB), whole panel; type: cell-based, human; settings: mean across the NCI-60 panel; one dose 10 μM
SN 12C = experiment: NCI-60 anticancer screening (SRB); type: cell-based; settings: Homo sapiens, SN12C; SN 12C, renal cancer; one dose 10 μM; read-out: Growth Inhibition Percentage (GI %)
T-47D = experiment: NCI-60 anticancer screening (SRB); type: cell-based; settings: Homo sapiens, T47D, breast cancer, one dose 10 μM, read-out: Growth Inhibition Percentage (GI %)
PC-3 = experiment: NCI-60 anticancer screening (SRB); type: cell-based; settings: Homo sapiens; PC-3, prostate cancer; one dose 10 μM; read-out: Growth Inhibition Percentage (GI %)
EGFR^WT = EGFR^WT (Homo sapiens, UniProt P00533); experiment: EGFR kinase inhibitory assay (HTRF)
SK-OV-3 = experiment: NCI-60 anticancer screening (SRB); type: cell-based; settings: Homo sapiens; SK-OV-3, ovarian cancer; one dose 10 μM; read-out: Growth Inhibition Percentage (GI %)
HCT-15 = experiment: NCI-60 anticancer screening (SRB); type: cell-based; settings: Homo sapiens; HCT-15, colon cancer; one dose 10 μM; read-out: Growth Inhibition Percentage (GI %)
IGROV1 = experiment: NCI-60 anticancer screening (SRB); type: cell-based; settings: Homo sapiens, IGROV-1; IGROV1, ovarian cancer; one dose 10 μM; read-out: Growth Inhibition Percentage (GI %)
HCT-116 = experiment: NCI-60 anticancer screening (SRB); type: cell-based; settings: Homo sapiens; HCT-116, colon cancer; one dose 10 μM; read-out: Growth Inhibition Percentage (GI %)
OVCAR-5 = experiment: NCI-60 anticancer screening (SRB); type: cell-based; settings: Homo sapiens; OVCAR-5, ovarian cancer; one dose 10 μM; read-out: Growth Inhibition Percentage (GI %)
SK-MEL-5 = experiment: NCI-60 anticancer screening (SRB); type: cell-based; settings: Homo sapiens; SK-MEL-5, melanoma; one dose 10 μM; read-out: Growth Inhibition Percentage (GI %)
EGFR^T790M = EGFR^T790M (Homo sapiens, UniProt P00533, T790M); experiment: biochemical
SNB-19 = experiment: NCI-60 anticancer screening (SRB); type: cell-based; settings: Homo sapiens; SNB-19, CNS cancer; one dose 10 μM; read-out: Growth Inhibition Percentage (GI %)
A549/ATCC = experiment: NCI-60 anticancer screening (SRB); type: cell-based; settings: Homo sapiens; A549/ATCC, NSC lung cancer; one dose 10 μM; read-out: Growth Inhibition Percentage (GI %)
NCI-H460 = experiment: NCI-60 anticancer screening (SRB); type: cell-based; settings: Homo sapiens; NCI-H460, NSC lung cancer; one dose 10 μM; read-out: Growth Inhibition Percentage (GI %)
SF-539 = experiment: NCI-60 anticancer screening (SRB); type: cell-based; settings: Homo sapiens; SF-539, CNS cancer; one dose 10 μM; read-out: Growth Inhibition Percentage (GI %)
MDA-MB-435 = experiment: NCI-60 anticancer screening (SRB); type: cell-based; settings: Homo sapiens; MDA-MB-435, melanoma; one dose 10 μM; read-out: Growth Inhibition Percentage (GI %)
NCI-H322M = experiment: NCI-60 anticancer screening (SRB); type: cell-based; settings: Homo sapiens, NSC lung cancer, one dose 10 μM, read-out: Growth Inhibition Percentage (GI %)
HT29 = experiment: NCI-60 anticancer screening (SRB); type: cell-based; settings: Homo sapiens, HT-29; HT29, colon cancer; one dose 10 μM; read-out: Growth Inhibition Percentage (GI %)

Sequence of EGFR^WT (P00533 25-1210): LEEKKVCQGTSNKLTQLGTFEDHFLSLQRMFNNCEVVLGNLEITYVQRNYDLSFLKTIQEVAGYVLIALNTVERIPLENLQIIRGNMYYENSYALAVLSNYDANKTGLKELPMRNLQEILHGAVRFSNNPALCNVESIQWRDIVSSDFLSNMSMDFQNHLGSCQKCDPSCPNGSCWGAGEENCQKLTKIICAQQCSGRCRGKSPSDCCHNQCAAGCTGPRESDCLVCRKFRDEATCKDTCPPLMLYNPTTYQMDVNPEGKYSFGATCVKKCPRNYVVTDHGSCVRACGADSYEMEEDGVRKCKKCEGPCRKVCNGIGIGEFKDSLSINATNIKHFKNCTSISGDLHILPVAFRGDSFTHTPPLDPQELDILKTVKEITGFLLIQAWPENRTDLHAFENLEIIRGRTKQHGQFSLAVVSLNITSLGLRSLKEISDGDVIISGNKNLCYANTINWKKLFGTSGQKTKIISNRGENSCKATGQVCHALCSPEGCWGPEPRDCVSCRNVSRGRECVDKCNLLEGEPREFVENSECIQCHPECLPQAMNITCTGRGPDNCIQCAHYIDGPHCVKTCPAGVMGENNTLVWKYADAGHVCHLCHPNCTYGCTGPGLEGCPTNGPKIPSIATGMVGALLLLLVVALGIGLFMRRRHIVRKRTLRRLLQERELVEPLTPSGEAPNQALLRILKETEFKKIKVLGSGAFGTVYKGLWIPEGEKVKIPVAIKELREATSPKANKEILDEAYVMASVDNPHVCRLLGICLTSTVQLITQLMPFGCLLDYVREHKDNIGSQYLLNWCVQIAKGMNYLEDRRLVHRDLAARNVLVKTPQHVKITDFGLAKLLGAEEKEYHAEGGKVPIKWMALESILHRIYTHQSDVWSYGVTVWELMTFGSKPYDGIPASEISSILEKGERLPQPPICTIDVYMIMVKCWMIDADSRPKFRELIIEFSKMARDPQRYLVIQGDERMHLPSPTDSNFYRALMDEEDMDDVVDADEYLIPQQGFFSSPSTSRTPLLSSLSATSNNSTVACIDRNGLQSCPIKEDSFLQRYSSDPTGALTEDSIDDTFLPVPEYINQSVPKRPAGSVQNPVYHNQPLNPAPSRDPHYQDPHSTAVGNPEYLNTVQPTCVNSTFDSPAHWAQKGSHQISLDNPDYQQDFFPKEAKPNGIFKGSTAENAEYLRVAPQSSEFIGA
Sequence of EGFR^T790M (P00533 25-1210 T790M): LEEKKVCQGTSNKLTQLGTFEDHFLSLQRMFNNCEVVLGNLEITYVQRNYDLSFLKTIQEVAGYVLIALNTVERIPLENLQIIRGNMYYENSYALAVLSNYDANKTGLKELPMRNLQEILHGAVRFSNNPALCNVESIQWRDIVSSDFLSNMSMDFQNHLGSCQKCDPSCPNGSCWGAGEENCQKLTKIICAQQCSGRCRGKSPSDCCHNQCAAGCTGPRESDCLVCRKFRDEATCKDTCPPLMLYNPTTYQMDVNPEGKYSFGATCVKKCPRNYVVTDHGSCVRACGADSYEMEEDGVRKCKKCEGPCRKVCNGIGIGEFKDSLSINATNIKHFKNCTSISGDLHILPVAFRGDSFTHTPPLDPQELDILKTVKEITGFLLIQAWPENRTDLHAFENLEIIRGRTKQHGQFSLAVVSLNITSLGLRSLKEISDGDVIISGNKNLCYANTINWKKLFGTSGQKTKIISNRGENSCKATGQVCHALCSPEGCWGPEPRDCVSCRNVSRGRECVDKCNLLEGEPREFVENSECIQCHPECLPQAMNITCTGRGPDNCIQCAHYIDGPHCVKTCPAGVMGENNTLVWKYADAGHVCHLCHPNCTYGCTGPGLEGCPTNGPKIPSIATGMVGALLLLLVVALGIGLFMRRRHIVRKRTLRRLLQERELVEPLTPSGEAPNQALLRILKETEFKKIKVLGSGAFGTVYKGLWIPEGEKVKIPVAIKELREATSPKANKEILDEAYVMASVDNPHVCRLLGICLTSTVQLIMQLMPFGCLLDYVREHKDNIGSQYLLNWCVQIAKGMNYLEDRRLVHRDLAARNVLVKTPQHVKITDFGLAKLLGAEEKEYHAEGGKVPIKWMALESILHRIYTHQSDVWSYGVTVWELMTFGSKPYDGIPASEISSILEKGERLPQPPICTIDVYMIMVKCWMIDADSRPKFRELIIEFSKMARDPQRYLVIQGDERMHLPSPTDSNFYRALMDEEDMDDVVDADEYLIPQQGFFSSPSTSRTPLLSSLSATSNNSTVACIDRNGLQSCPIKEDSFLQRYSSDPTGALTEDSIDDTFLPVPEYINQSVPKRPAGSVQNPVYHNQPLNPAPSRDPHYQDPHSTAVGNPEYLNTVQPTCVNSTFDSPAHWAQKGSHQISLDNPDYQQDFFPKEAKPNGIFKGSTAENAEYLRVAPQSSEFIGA
Sequence of EGFR^L858R (P00533 25-1210 L858R): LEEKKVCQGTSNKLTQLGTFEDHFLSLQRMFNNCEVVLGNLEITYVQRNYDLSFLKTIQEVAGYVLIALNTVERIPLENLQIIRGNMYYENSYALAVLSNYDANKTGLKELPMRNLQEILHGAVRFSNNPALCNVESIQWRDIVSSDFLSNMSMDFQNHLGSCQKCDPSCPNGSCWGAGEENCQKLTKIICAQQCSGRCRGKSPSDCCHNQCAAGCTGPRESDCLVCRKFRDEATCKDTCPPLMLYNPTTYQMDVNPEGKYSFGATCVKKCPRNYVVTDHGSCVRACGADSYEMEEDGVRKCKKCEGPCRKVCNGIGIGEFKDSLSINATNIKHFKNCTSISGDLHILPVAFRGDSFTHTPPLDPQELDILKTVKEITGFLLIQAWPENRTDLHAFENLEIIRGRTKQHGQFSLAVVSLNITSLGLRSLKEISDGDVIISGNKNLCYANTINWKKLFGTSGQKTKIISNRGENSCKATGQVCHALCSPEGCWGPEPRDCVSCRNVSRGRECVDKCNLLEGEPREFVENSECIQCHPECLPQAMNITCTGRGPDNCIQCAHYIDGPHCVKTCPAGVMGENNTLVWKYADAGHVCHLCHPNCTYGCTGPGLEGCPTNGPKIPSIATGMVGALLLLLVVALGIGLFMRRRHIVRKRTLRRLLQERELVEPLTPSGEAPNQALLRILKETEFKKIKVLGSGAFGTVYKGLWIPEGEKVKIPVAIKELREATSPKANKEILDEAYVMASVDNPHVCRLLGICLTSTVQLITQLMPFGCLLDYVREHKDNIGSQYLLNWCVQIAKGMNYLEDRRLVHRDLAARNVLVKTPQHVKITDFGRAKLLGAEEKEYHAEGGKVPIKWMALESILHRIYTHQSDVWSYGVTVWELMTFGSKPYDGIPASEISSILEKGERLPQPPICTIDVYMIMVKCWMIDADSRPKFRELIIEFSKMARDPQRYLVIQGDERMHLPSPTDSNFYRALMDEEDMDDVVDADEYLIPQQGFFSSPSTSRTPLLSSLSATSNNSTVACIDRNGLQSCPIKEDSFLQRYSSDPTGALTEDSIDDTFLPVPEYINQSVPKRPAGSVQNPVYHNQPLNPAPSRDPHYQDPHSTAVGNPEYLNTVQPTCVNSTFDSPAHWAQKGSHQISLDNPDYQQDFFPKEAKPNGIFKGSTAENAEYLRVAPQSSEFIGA

| SMILES | inhibition at 10 µM (KM 12) | inhibition at 10 µM (MDA-MB-231) | IC50 (EGFR^L858R) | inhibition at 10 µM (RXF 393) | inhibition at 10 µM (SW-620) | inhibition at 10 µM (ACHN) | inhibition at 10 µM (SR) | inhibition at 10 µM (RPMI-8226) | inhibition at 10 µM (HCC-2998) | inhibition at 10 µM (UACC-257) | inhibition at 10 µM (HOP-62) | GI % mean (NCI 60 cancer cell lines) | inhibition at 10 µM (SN 12C) | inhibition at 10 µM (T-47D) | inhibition at 10 µM (PC-3) | IC50 (EGFR^WT) | inhibition at 10 µM (SK-OV-3) | inhibition at 10 µM (HCT-15) | inhibition at 10 µM (IGROV1) | inhibition at 10 µM (HCT-116) | other results |
| --- | --- | --- | --- | --- | --- | --- | --- | --- | --- | --- | --- | --- | --- | --- | --- | --- | --- | --- | --- | --- | --- |
| CCOC(=O)C1=C(N)N(c2ccc(C)cc2)C2=C(C(=O)CC(C)(C)C2)C1c1ccccc1Br (racemic) [6e, (±)-Ethyl 2-amino-4–(2-bromophenyl)-7,7-dimethyl-1–(4-methylphenyl)-5-oxo-1,4,5,6,7,8-hexahydroquinoline-3-carboxylate] | 16% | < 10% | 370 ± 4 nM | 14% | 54% | 14% | 34% | 64% | 11% | 16% | < 10% | 22% | 15% | 30% | 68% | 176 ± 70 nM | < 10% | 42% | < 10% | 60% | inhibition at 10 µM (OVCAR-5): < 10%; inhibition at 10 µM (SK-MEL-5): 23%; IC50 (EGFR^T790M): 480 ± 3 nM; inhibition at 10 µM (SNB-19): 13%; inhibition at 10 µM (A549/ATCC): 19%; inhibition at 10 µM (NCI-H460): 46%; inhibition at 10 µM (SF-539): < 10%; inhibition at 10 µM (MDA-MB-435): 17%; inhibition at 10 µM (NCI-H322M): < 10%; inhibition at 10 µM (HT29): 37% |
| CCOC(=O)C1=C(N)N(c2ccc(Cl)cc2)C2=C(C(=O)CC(C)(C)C2)C1c1ccccc1Br (racemic) [6f, (±)-Ethyl 2-amino-4–(2-bromophenyl)-1–(4-chlorophenyl)-7,7-dimethyl-5-oxo-1,4,5,6,7,8-hexahydroquinoline-3-carboxylate] | 40% | 15% | 480 ± 3 nM | < 10% | 38% | 20% | < 10% | < 10% | < 10% | 42% | < 10% | 24% | 13% | 49% | 71% | 313 ± 120 nM | < 10% | 53% | < 10% | 60% | inhibition at 10 µM (OVCAR-5): < 10%; inhibition at 10 µM (SK-MEL-5): 79%; IC50 (EGFR^T790M): 590 ± 4 nM; inhibition at 10 µM (SNB-19): 11%; inhibition at 10 µM (A549/ATCC): 31%; inhibition at 10 µM (NCI-H460): 43%; inhibition at 10 µM (SF-539): < 10%; inhibition at 10 µM (MDA-MB-435): < 10%; inhibition at 10 µM (NCI-H322M): < 10%; inhibition at 10 µM (HT29): 44% |
| CCOC(=O)C1=C(N)N(c2ccc(Cl)cc2)C2=C(C(=O)CC(C)(C)C2)C1c1ccccc1OC (racemic) [6i, (±)-Ethyl 2-amino-1–(4-chlorophenyl)-4–(2-methoxyphenyl)-7,7-dimethyl-5-oxo-1,4,5,6,7,8-hexahydroquinoline-3-carboxylate] | 54% | 31% | 230 ± 1 nM | < 10% | 23% | 38% | 64% | 73% | 38% | 44% | < 10% | 36% | 12% | 40% | 68% | 157 ± 30 nM | < 10% | 59% | 27% | 65% | inhibition at 10 µM (OVCAR-5): 15%; inhibition at 10 µM (SK-MEL-5): 29%; IC50 (EGFR^T790M): 450 ± 3 nM; inhibition at 10 µM (SNB-19): 28%; inhibition at 10 µM (A549/ATCC): 52%; inhibition at 10 µM (NCI-H460): 51%; inhibition at 10 µM (SF-539): 31%; inhibition at 10 µM (MDA-MB-435): 51%; inhibition at 10 µM (NCI-H322M): 15%; inhibition at 10 µM (HT29): 44% |
| CCOC(=O)C1=C(N)N(c2ccc(Cl)cc2)C2=C(C(=O)CC(C)(C)C2)C1c1ccc(F)cc1 (racemic) [8b, (±)-Ethyl 2-amino-1–(4-chlorophenyl)-4–(4-fluoroyphenyl)-7,7-dimethyl-5-oxo-1,4,5,6,7,8-hexahydroquinoline-3-carboxylate] | < 10% | 19% | 770 ± 6 nM | 17% | < 10% | < 10% | < 10% | < 10% | < 10% | 11% | < 10% | 14% | < 10% | 27% | 35% | 186 ± 100 nM | < 10% | 34% | < 10% | 34% | inhibition at 10 µM (OVCAR-5): < 10%; inhibition at 10 µM (SK-MEL-5): 29%; IC50 (EGFR^T790M): 650 ± 4 nM; inhibition at 10 µM (SNB-19): 22%; inhibition at 10 µM (A549/ATCC): 12%; inhibition at 10 µM (NCI-H460): < 10%; inhibition at 10 µM (SF-539): < 10%; inhibition at 10 µM (MDA-MB-435): 11%; inhibition at 10 µM (NCI-H322M): < 10%; inhibition at 10 µM (HT29): 39% |
| CCOC(=O)C1=C(N)N(c2ccccc2)C2=C(C(=O)CC(C)(C)C2)C1c1ccc(Cl)cc1 (racemic) [8c, (±)-Ethyl 2-amino-4–(4-chlorophenyl)-7,7-dimethyl-5-oxo-1-phenyl-1,4,5,6,7,8-hexahydroquinoline-3-carboxylate] | 82% | 47% | 812 ± 5 nM | < 10% | 72% | 78% | 87% | 92% | 57% | 72% | 19% | 63% | 46% | 70% | 78% | 194 ± 90 nM | 56% | 85% | 40% | 81% | inhibition at 10 µM (OVCAR-5): 42%; inhibition at 10 µM (SK-MEL-5): 72%; IC50 (EGFR^T790M): 820 ± 6 nM; inhibition at 10 µM (SNB-19): 85%; inhibition at 10 µM (A549/ATCC): 66%; inhibition at 10 µM (NCI-H460): 87%; inhibition at 10 µM (SF-539): 64%; inhibition at 10 µM (MDA-MB-435): 78%; inhibition at 10 µM (NCI-H322M): 35%; inhibition at 10 µM (HT29): 65% |
